Experiments:
[1] = tested on: tri-culture of hMSC derived chondrocytes, hMSC derived osteoblasts and HUVEC; test: Inflammatory assay: oxidative stress (CellROX Orange ROS) in tri-culture OC device; format: cell-based, human; settings: 100 ng/mL LPS perfused into channel 3, no RAP; 4 hours without flow; versus control; n=3; FIG. 8
Description: In the tri-culture device, OA-like cues were supplied to observe i) oxidative stress induced by LPS conditioning, and ii) the reduction of the oxidative stress in the simultaneous presence of LPS and the anti-inflammatory drug Rapamycin (RAP). Thus, three conditions were investigated: no insult (control,-LPS-RAP), insult (+LPS−RAP), and insult plus treatment (+LPS+RAP). For the insult, the medium was exchanged in established devices with 100 ng/mL LPS perfused into channel 3 to maximize inflammation across the device by supplying LPS in the closest proximity to both bone and vasculature. […]
Resultant oxidative stress was measured by image processing after four hours by the CellROX™ Orange Reactive Oxygen Species Detection Kit (Thermo Fisher), a fluorometric reactive oxygen species (ROS) assay, according to the manufacture's protocol. […] The same microscope was used to capture images for each experiment and exposure and other microscope settings were kept constant to allow quantitative comparisons between micrographs. Quantitative measurement of relative ROS was conducted by image analysis via ImageJ and Matlab®. Briefly, for each condition (i.e., i)-LPS-RAP; ii)+LPS-RAP; iii)+LPS+RAP) images were split into three regions of interest (ROIs), representing the three channel of the devices (vasculature, bone, cartilage), that were separately analyzed. […]

[2] = tested on: MMPs (catabolic genes related to OA) in bone and cartilage channels; test: qPCR of MMP changes in OC device after defined inflammatory cytokines and drug candidate; format: cell-based, human; settings: combination of defined inflammatory cytokines for 24 hours, then Tyrphostin-9; versus no treatment and cytokine alone; FIGS. 11A-11F
Source text: The qPCR data from extracted cells was obtained from the cells that can be individually extracted on a per-channel basis so that tissues can be analyzed separately. […] Statistical significance determined by Kruskal-Wallis non-parametric test followed by Dunn's post hoc. * p<0.05, ** p<0.01, and *** p<0.001. FIGS. 10A, 10C, and 10E show bone. FIGS. 10B, 10D, and 10F show cartilage.
FIGS. 11A-11F include data that show the MMP changes in response to the combination of defined cytokines and a drug candidate. Devices were exposed to a combination of defined inflammatory cytokines for 24 hours. After 24 hours, the devices were exposed to either fresh medium without cytokines, or to Tyrphostin-9 (TY9), a candidate compound with potential anti-inflammatory effects under consideration as a palliative for osteoarthritis (OA). […] Thus, the device can be used to screen for drugs to treat OA.

Row | Compound | oxidative stress of the cells (relative ROS, normalized image intensity) [1] | MMP changes (fold change) / inflammatory condition [2]
1 | lipopolysaccharide [LPS] | increases the oxidative stress of the cells in all the compartment | 
2 | CC(C)(C)c1cc(C=C(C#N)C#N)cc(C(C)(C)C)c1O [Tyrphostin-9] |  | inflammatory condition is improved

— US20250354096A1, “IN VITRO DEVICE FOR VASCULARIZED MICROFLUIDIC MODELING OF OSTEOCHONDRAL UNIT” (CFD Research Corporation, priority 2024, published 2025)
